By inhibition is commonly meant the change of the read-out against control, counted positive when it falls.

From PMC9217908, “Screening of commonly prescribed drugs for effects on the CAT1-mediated transport of L-arginine and arginine derivatives” (Amino Acids, 2022) come the findings set out here.

Like-named read-outs stand apart in the source and are kept apart here.

Test in all cases: cell-based
For assay [1], the target named is T1, CAT1 (cationic amino acid transporter 1, CAT1/SLC7A1) (Homo sapiens, UniProt P30825).
T1 construct: full-length human transporter stably transfected in HEK cells (HEK-CAT1); net uptake against HEK-VC vector control cells
Set-up: species or system HEK-CAT1 (HEK293 stably transfected); Inhibition of net CAT1-mediated [3H]-L-homoarginine (1 uM) uptake, 2.5 min, scintillation counting, vector control subtracted. Conditions: HEK293, L-homoarginine 1 uM as substrate; for inhibition at 20 µM: read-out: % Inhibition of L-homoarginine uptake at 20 µM; for inhibition at 200 µM: read-out: % Inhibition of L-homoarginine uptake at 200 µM. In outline:
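HEK-CAT1 cells with HEK-VC vector controls; [3H]-L-homoarginine (1 μM) uptake over 2.5 min with or without test compound at 20 µM or 200 µM. Net CAT1 uptake (CAT1 minus VC) gives inhibition (%) = 100 – (V/V0 × 100). Negative values mean stimulated uptake; n = 6–9 from at least two independent experiments.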

Assay [2] has as its target T1, CAT1 (cationic amino acid transporter 1, CAT1/SLC7A1). Set-up: species or system HEK-CAT1 (HEK293 stably transfected); Inhibition of net CAT1-mediated [3H]-ADMA (1 uM) uptake, 2.5 min, scintillation counting, vector control subtracted. Conditions: HEK293, ADMA 1 uM as substrate; for inhibition at 20 µM: read-out: % Inhibition of ADMA uptake at 20 µM; for inhibition at 200 µM: read-out: % Inhibition of ADMA uptake at 200 µM. In outline:
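HEK cells expressing CAT1 and vector-control cells took up [^3H]-L-arginine for 5 min, or [^3H]-L-homoarginine or [^3H]-ADMA (1 μM) for 2.5 min, with or without drug at 20 or 200 µM. Net CAT1 uptake was CAT1 cells minus control cells, and inhibition (%) = 100 − V/V0×100. Negative values mean stimulation; n = 6–9.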

The target is the same in assay [3]. Details: species or system HEK-CAT1 (HEK293 stably transfected); Inhibition of net CAT1-mediated [3H]-L-arginine (100 uM) uptake, 5 min, scintillation counting, vector control subtracted. To be noted: HEK293, L-arginine 100 uM as substrate; for inhibition at 20 µM: read-out: % Inhibition of L-arginine uptake at 20 µM; for inhibition at 200 µM: read-out: % Inhibition of L-arginine uptake at 200 µM. The procedure, abridged: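 HEK-CAT1 and vector-control HEK-VC cells took up [3H]-L-arginine (100 μM) for 5 min, with or without drug at 20 or 200 µM; [3H]-L-homoarginine or [3H]-ADMA uptake ran 2.5 min. Net uptake is CAT1 minus VC cells, and inhibition (%) = 100 − (V/V0 × 100). Negative values mean stimulated uptake.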

T1 sequence (P30825 whole entry): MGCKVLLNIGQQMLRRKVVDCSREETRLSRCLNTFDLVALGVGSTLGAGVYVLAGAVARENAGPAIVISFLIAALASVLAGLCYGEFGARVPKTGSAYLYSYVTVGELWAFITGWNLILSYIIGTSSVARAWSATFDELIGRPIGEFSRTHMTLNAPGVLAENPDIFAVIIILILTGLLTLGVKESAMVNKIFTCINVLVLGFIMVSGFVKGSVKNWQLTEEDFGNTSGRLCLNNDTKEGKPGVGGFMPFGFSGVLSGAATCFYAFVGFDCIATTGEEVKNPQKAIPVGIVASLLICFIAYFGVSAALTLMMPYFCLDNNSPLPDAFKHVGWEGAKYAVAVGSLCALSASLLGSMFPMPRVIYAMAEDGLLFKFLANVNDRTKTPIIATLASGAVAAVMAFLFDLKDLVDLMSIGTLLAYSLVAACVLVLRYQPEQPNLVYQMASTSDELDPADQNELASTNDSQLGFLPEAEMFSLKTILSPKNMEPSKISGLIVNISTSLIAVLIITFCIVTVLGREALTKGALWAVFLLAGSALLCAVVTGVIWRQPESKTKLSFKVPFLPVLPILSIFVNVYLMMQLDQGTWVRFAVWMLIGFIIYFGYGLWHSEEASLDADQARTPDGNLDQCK

On to `NC12CC3CC(CC(C3)C1)C2` [Amantadine], for which the inhibition at 20 µM in assay [1] was 11.9 ± 5.6%; in assay [2], 5.3 ± 3%; in assay [3] it was -14.2 ± 7.4%. Besides, the results for the inhibition at 200 µM in assay [1], in assay [2] and in assay [3] were -19.7 ± 2.6%, -5.7 ± 11.1% and -76 ± 4.5%, respectively.
Take `COCCc1ccc(OCC(O)CNC(C)C)cc1` (stereo not shown) [Metoprolol]: the inhibition at 20 µM is -21.4 ± 3.7% in assay [1], -15.1 ± 7.1% in assay [2] and 8.1 ± 6.7% in assay [3]. Further, the inhibition at 200 µM in assay [1] worked out at 0.3 ± 2.5%; in assay [2] it was 19.8 ± 4.1%; in assay [3] it was 1.3 ± 3.8%.
Consider `O[C@@H](CNC[C@H](O)[C@H]1CCc2cc(F)ccc2O1)[C@@H]1CCc2cc(F)ccc2O1` (racemic) [Nebivolol], for which the values for the inhibition at 20 µM in assay [1], in assay [2] and in assay [3] were -4.6 ± 1.9%, -2.9 ± 1.7% and 5.2 ± 3%, respectively. Moreover, the inhibition at 200 µM in assay [1] was 0.3 ± 3.1%; in assay [2] it was -6.6 ± 15.4%; in assay [3], 1.3 ± 2.9%.
For `O=C(O[C@H]1C[C@H]2CC[C@@H](C1)[N+]21CCCC1)C(O)(c1ccccc1)c1ccccc1` [Trospium Chloride], the results for the inhibition at 200 µM in assay [1], in assay [2] and in assay [3] were -22.5 ± 2.3%, 3 ± 9.1% and -23.8 ± 4.5%, respectively. Also, the inhibition at 20 µM in assay [3] is 27.1 ± 2.1%.
For `CCOC(=O)[C@H](CCc1ccccc1)N[C@@H](C)C(=O)N1[C@H](C(=O)O)C[C@@H]2CCC[C@@H]21` [Ramipril], the inhibition at 20 µM in assay [1] was -0.7 ± 11.5%; in assay [2] it was 0.1 ± 6.9%; in assay [3] it was 0.3 ± 12%. Also, the figures for the inhibition at 200 µM in assay [1], in assay [2] and in assay [3] were -6.5 ± 2%, -31.1 ± 6.9% and -5.8 ± 2.3%, respectively.
Regarding `COc1ccc(OC)c(C(O)C(C)N)c1` (stereo not shown) [Methoxamine], the inhibition at 20 µM in assay [1] stood at 0.7 ± 11.9%; in assay [2] it was 0.7 ± 11.9%; in assay [3] it was 24.5 ± 10.5%. The inhibition at 200 µM is -23.9 ± 2.1% in assay [1], 1.8 ± 0.9% in assay [2] and -23.9 ± 3.7% in assay [3].
`CC(C)OC(=O)C(C)(C)Oc1ccc(C(=O)c2ccc(Cl)cc2)cc1` [Fenofibrate]: the inhibition at 20 µM in assay [1] is 10.1 ± 2.9%; in assay [2], -4.8 ± 2.1%; in assay [3], 16.3 ± 6.6%. Besides, the inhibition at 200 µM in assay [1] was found to be 8.9 ± 0.4%; in assay [2] it was 0.2 ± 3.2%; in assay [3] it was 13.1 ± 2%.
`CN(C)C(=N)NC(=N)N` [Metformin]: the results for the inhibition at 20 µM in assay [1], in assay [2] and in assay [3] were -20.4 ± 13.7%, -8 ± 4.3% and -20.7 ± 14.1%, respectively. Also, the inhibition at 200 µM in assay [1] is -18.8 ± 1.3%; in assay [2], -8.4 ± 3.1%; in assay [3] it was -23.1 ± 1.4%.
`CC(=O)Nc1ccc(O)cc1` [Acetaminophen]: the inhibition at 20 µM in assay [1] is 8.1 ± 4.7%; in assay [2], -14.7 ± 3.8%; in assay [3], 6.6 ± 4.9%. Also, the values for the inhibition at 200 µM in assay [1], in assay [2] and in assay [3] were 4.4 ± 0.7%, -3.9 ± 3.4% and 2.4 ± 1.6%, respectively.
In the case of `C[C@H]1O[C@@H](O[C@H]2[C@@H](O)C[C@H](O[C@H]3[C@@H](O)C[C@H](O[C@H]4CC[C@@]5(C)[C@H](CC[C@@H]6[C@@H]5CC[C@]5(C)[C@@H](C7=CC(=O)OC7)CC[C@]65O)C4)O[C@@H]3C)O[C@@H]2C)C[C@H](O)[C@@H]1O` [Digitoxin], the inhibition at 20 µM in assay [1] is -7.2 ± 2.7%; in assay [2], 4.3 ± 3.3%; in assay [3], -7.2 ± 8.2%. Also, the inhibition at 200 µM was -12.6 ± 2.5% in assay [1], 21.5 ± 2.5% in assay [2] and -14.1 ± 4.2% in assay [3].
Regarding `Nc1ccc(S(=O)(=O)c2ccc(N)cc2)cc1` [Dapsone], the inhibition at 20 µM in assay [1] was -9.8 ± 4.4%; in assay [2], 13.4 ± 4.4%; in assay [3], -8.6 ± 4.3%. The inhibition at 200 µM was -24.7 ± 3.1% in assay [1], -11.8 ± 3.7% in assay [2] and -27.2 ± 4.2% in assay [3].
Turning to `CN(Cc1cnc2nc(N)nc(N)c2n1)c1ccc(C(=O)N[C@@H](CCC(=O)O)C(=O)O)cc1` [Methotrexate], the values for the inhibition at 20 µM in assay [1], in assay [2] and in assay [3] were 19.5 ± 1%, 5.4 ± 4.3% and 22.3 ± 0.8%, respectively. Also, the inhibition at 200 µM in assay [1] was -6.8 ± 0.9%; in assay [2], 9.9 ± 4.5%; in assay [3], -7.1 ± 2.1%.
Regarding `CCOC(=O)C1=C(C)NC(C)=C(C(=O)OC)C1c1cccc([N+](=O)[O-])c1` (stereo not shown) [Nitrendipine], the inhibition at 20 µM was 3.4 ± 8.7% in assay [1], 3.2 ± 9.5% in assay [2] and -1.5 ± 7.1% in assay [3]. Besides, the figures for the inhibition at 200 µM in assay [1], in assay [2] and in assay [3] were 15.2 ± 4.5%, 30.4 ± 0.8% and 26.1 ± 8.1%, respectively.
Turning to `CNCCC(Oc1ccc(C(F)(F)F)cc1)c1ccccc1` (stereo not shown) [Fluoxetine], the inhibition at 20 µM was -4.4 ± 5.2% in assay [1], -2.4 ± 2% in assay [2] and 46.5 ± 8.5% in assay [3]. Besides, the values for the inhibition at 200 µM in assay [1], in assay [2] and in assay [3] were 25.6 ± 1.2%, -18.8 ± 7.8% and 26 ± 1.5%, respectively.
`Clc1ccccc1CN1CCc2sccc2C1` [Ticlopidine]: the inhibition at 20 µM in assay [1] is -4.3 ± 4.6%; in assay [2], -11.3 ± 8.3%; in assay [3], 10.4 ± 4.4%. The values for the inhibition at 200 µM in assay [1], in assay [2] and in assay [3] were 31.4 ± 10.1%, -33.5 ± 3.3% and 31.7 ± 10.4%, respectively.
Regarding `C[C@H](CS)C(=O)N1CCC[C@H]1C(=O)O` [Captopril], the values for the inhibition at 20 µM in assay [1], in assay [2] and in assay [3] were 0.1 ± 4.5%, 0.5 ± 2.1% and 0.6 ± 4.7%, respectively. In addition, the results for the inhibition at 200 µM in assay [1], in assay [2] and in assay [3] were -15.9 ± 3%, -19.6 ± 2.2% and -15.1 ± 13.1%, respectively.
Consider `OCCN1CCN(CCCN2c3ccccc3C=Cc3ccccc32)CC1` [Opipramol], for which the inhibition at 20 µM in assay [1] was -16.8 ± 3.4%; in assay [2] it was -13.4 ± 3.7%; in assay [3] it was 22.3 ± 1.8%. Moreover, the inhibition at 200 µM in assay [1] was 29.5 ± 2.7%; in assay [2], -1 ± 4.5%; in assay [3], 29.2 ± 2.7%.
Take `C[C@]12CCC(=O)C=C1CC[C@H]1[C@@H]3CC[C@](O)(C(=O)CO)[C@@]3(C)C[C@H](O)[C@@]12F` [Fludrocortisone]: the inhibition at 20 µM in assay [1] was -27 ± 6.7%; in assay [2] it was 0.5 ± 3.9%; in assay [3], -29.4 ± 8.1%. Moreover, the inhibition at 200 µM in assay [1] was -15.1 ± 0.6%; in assay [2], -43.9 ± 4.9%; in assay [3], -24.6 ± 1%.
In the case of `CCN(CC)CCNC(=O)c1cc(Cl)c(N)cc1OC` [Metoclopramide], the values for the inhibition at 20 µM in assay [1], in assay [2] and in assay [3] were -6.3 ± 1.4%, -3.2 ± 2.1% and 7.5 ± 2.1%, respectively. Further, the inhibition at 200 µM in assay [1] is 1.4 ± 3.2%; in assay [2], 4.2 ± 9.4%; in assay [3] it was 2.5 ± 3.5%.
For `C[C@@H](O)[C@H]1C(=O)N2C(C(=O)O)=C(S[C@@H]3CN[C@H](C(=O)N(C)C)C3)[C@H](C)[C@H]12` [Meropenem], the inhibition at 20 µM was -19.3 ± 9.1% in assay [1], 0.1 ± 3.2% in assay [2] and -19.1 ± 9.3% in assay [3]. The inhibition at 200 µM was -13.6 ± 4.6% in assay [1], 12.1 ± 5.1% in assay [2] and -13.4 ± 4.9% in assay [3].
For the compound `c1ccc([C@H]2CN3CCSC3=N2)cc1` [Levamisole], the inhibition at 20 µM in assay [1] was 19.6 ± 11.8%; in assay [2], 18.9 ± 12.5%; in assay [3] it was -18.4 ± 6.9%. Besides, the inhibition at 200 µM in assay [1] is -15.9 ± 3.8%; in assay [2], -34.3 ± 2.4%; in assay [3], -17.2 ± 5.1%.
For the compound `COc1ccc(Cl)cc1C(=O)NCCc1ccc(S(=O)(=O)NC(=O)NC2CCCCC2)cc1` [Glibenclamide], the values for the inhibition at 20 µM in assay [1], in assay [2] and in assay [3] were 12.4 ± 2.8%, 16.8 ± 2.5% and 13.9 ± 3.4%, respectively. In addition, the inhibition at 200 µM in assay [1] was determined as 10.1 ± 3%; in assay [2], 8.1 ± 2.1%; in assay [3] it was 14 ± 9.6%.
For the compound `CC1(C)S[C@@H]2[C@H](NC(=O)[C@H](N)c3ccccc3)C(=O)N2[C@H]1C(=O)O` [Ampicillin], the inhibition at 20 µM in assay [1] was -2.5 ± 2.7%; in assay [2], 20.2 ± 2.8%; in assay [3], -2.5 ± 2.7%. In addition, the inhibition at 200 µM in assay [1] is -6.6 ± 3.6%; in assay [2] it was -4.1 ± 2.8%; in assay [3] it was 6.7 ± 1.4%.
